# Results reported in PubChem BioAssay (NCI).
#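 GI50 marks 50% less growth. TGI denotes the concentration required for complete inhibition of growth.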
# What was measured:
# Test in all cases: NCI anticancer screen, dose series, 384-well format
# 786-0 renal = tested on: 786-0 renal
# A498 renal = tested on: A498 renal
# A549 NSCLC = tested on: A549 NSCLC
# ACHN renal = tested on: ACHN renal
# BT-549 breast = tested on: BT-549 breast
# CAKI-1 renal = tested on: CAKI-1 renal
# CCRF-CEM leukemia = tested on: CCRF-CEM leukemia
# EKVX NSCLC = tested on: EKVX NSCLC
# HCC-2998 colon = tested on: HCC-2998 colon
# HCT-116 colon = tested on: HCT-116 colon
# HCT-15 colon = tested on: HCT-15 colon
# HL-60(TB) leukemia = tested on: HL-60(TB) leukemia
# HOP-62 NSCLC = tested on: HOP-62 NSCLC
# HOP-92 NSCLC = tested on: HOP-92 NSCLC
# HS 578T breast = tested on: HS 578T breast
# HT29 colon = tested on: HT29 colon
# IGROV1 ovarian = tested on: IGROV1 ovarian
# K-562 leukemia = tested on: K-562 leukemia
# LOX IMVI melanoma = tested on: LOX IMVI melanoma
# MALME-3M melanoma = tested on: MALME-3M melanoma
# MCF7 breast = tested on: MCF7 breast
# MDA-MB-435 melanoma = tested on: MDA-MB-435 melanoma
# MDA-MB-468 breast = tested on: MDA-MB-468 breast
# MOLT-4 leukemia = tested on: MOLT-4 leukemia
# NCI-H226 lung = tested on: NCI-H226 lung
# NCI-H23 lung = tested on: NCI-H23 lung
# NCI-H460 NSCLC = tested on: NCI-H460 NSCLC
# NCI-H522 lung = tested on: NCI-H522 lung
# NCI/ADR-RES ovarian = tested on: NCI/ADR-RES ovarian
# OVCAR-3 ovarian = tested on: OVCAR-3 ovarian
# OVCAR-4 ovarian = tested on: OVCAR-4 ovarian
# OVCAR-5 ovarian = tested on: OVCAR-5 ovarian
# OVCAR-8 ovarian = tested on: OVCAR-8 ovarian
# PC-3 prostate = tested on: PC-3 prostate
# RPMI-8226 leukemia = tested on: RPMI-8226 leukemia
# RXF 393 renal = tested on: RXF 393 renal
# SF-268 CNS = tested on: SF-268 CNS
# SF-295 CNS = tested on: SF-295 CNS
# SF-539 CNS = tested on: SF-539 CNS
# SK-MEL-5 melanoma = tested on: SK-MEL-5 melanoma
# SK-OV-3 ovarian = tested on: SK-OV-3 ovarian
# SN12C renal = tested on: SN12C renal
# SNB-19 CNS = tested on: SNB-19 CNS
# SNB-75 CNS = tested on: SNB-75 CNS
# SW-620 colon = tested on: SW-620 colon
# T-47D breast = tested on: T-47D breast
# TK-10 renal = tested on: TK-10 renal
# U251 glioblastoma = tested on: U251 glioblastoma
# UO-31 renal = tested on: UO-31 renal
smiles,measurement,setting,value
COc1cc(C(=O)NC2CCN(C)CC2)c(F)cc1Nc1ncc2c(n1)N(C1CCCC1)CC(F)(F)C(=O)N2C,GI50,786-0 renal,30.8 nM
same,TGI,786-0 renal,1430 nM
same,GI50,A498 renal,99.5 nM
same,TGI,A498 renal,10700 nM
same,GI50,A549 NSCLC,< 10 nM
same,TGI,A549 NSCLC,410 nM
same,GI50,ACHN renal,83.1 nM
same,TGI,ACHN renal,11300 nM
same,GI50,BT-549 breast,30.9 nM
same,TGI,BT-549 breast,242 nM
same,GI50,CAKI-1 renal,93.2 nM
same,TGI,CAKI-1 renal,10500 nM
same,GI50,CCRF-CEM leukemia,< 10 nM
same,TGI,CCRF-CEM leukemia,< 10 nM
same,GI50,EKVX NSCLC,91.7 nM
same,TGI,EKVX NSCLC,6980 nM
same,GI50,HCC-2998 colon,13.5 nM
same,TGI,HCC-2998 colon,51.5 nM
same,GI50,HCT-116 colon,< 10 nM
same,TGI,HCT-116 colon,1340 nM
same,GI50,HCT-15 colon,21.4 nM
same,TGI,HCT-15 colon,160 nM
same,GI50,HL-60(TB) leukemia,< 10 nM
same,TGI,HL-60(TB) leukemia,< 10 nM
same,GI50,HOP-62 NSCLC,< 10 nM
same,TGI,HOP-62 NSCLC,2900 nM
same,GI50,HOP-92 NSCLC,41.3 nM
same,TGI,HOP-92 NSCLC,1400 nM
same,GI50,HS 578T breast,13.5 nM
same,TGI,HS 578T breast,42.1 nM
same,GI50,HT29 colon,< 10 nM
same,TGI,HT29 colon,19.3 nM
same,GI50,IGROV1 ovarian,29.8 nM
same,TGI,IGROV1 ovarian,2820 nM
same,GI50,K-562 leukemia,< 10 nM
same,TGI,K-562 leukemia,53.7 nM
same,GI50,LOX IMVI melanoma,16.7 nM
same,TGI,LOX IMVI melanoma,1150 nM
same,GI50,MALME-3M melanoma,26.5 nM
same,TGI,MALME-3M melanoma,1530 nM
same,GI50,MCF7 breast,< 10 nM
same,TGI,MCF7 breast,1510 nM
same,GI50,MDA-MB-435 melanoma,< 10 nM
same,TGI,MDA-MB-435 melanoma,10.8 nM
same,GI50,MDA-MB-468 breast,< 10 nM
same,TGI,MDA-MB-468 breast,< 10 nM
same,GI50,MOLT-4 leukemia,< 10 nM
same,TGI,MOLT-4 leukemia,< 10 nM
same,GI50,NCI-H226 lung,1330 nM
same,TGI,NCI-H226 lung,6330 nM
same,GI50,NCI-H23 lung,< 10 nM
same,TGI,NCI-H23 lung,16.7 nM
same,GI50,NCI-H460 NSCLC,< 10 nM
same,TGI,NCI-H460 NSCLC,14.7 nM
same,GI50,NCI-H522 lung,< 10 nM
same,TGI,NCI-H522 lung,< 10 nM
same,GI50,NCI/ADR-RES ovarian,50.9 nM
same,TGI,NCI/ADR-RES ovarian,206 nM
same,GI50,OVCAR-3 ovarian,< 10 nM
same,TGI,OVCAR-3 ovarian,14.1 nM
same,GI50,OVCAR-4 ovarian,1630 nM
same,TGI,OVCAR-4 ovarian,5880 nM
same,GI50,OVCAR-5 ovarian,14 nM
same,TGI,OVCAR-5 ovarian,1730 nM
same,GI50,OVCAR-8 ovarian,10.4 nM
same,TGI,OVCAR-8 ovarian,26.8 nM
same,GI50,PC-3 prostate,33.4 nM
same,TGI,PC-3 prostate,13100 nM
same,GI50,RPMI-8226 leukemia,16.3 nM
same,TGI,RPMI-8226 leukemia,31.5 nM
same,GI50,RXF 393 renal,< 10 nM
same,TGI,RXF 393 renal,27.4 nM
same,GI50,SF-268 CNS,< 10 nM
same,TGI,SF-268 CNS,< 10 nM
same,GI50,SF-295 CNS,30.8 nM
same,TGI,SF-295 CNS,272 nM
same,GI50,SF-539 CNS,20.5 nM
same,TGI,SF-539 CNS,1060 nM
same,GI50,SK-MEL-5 melanoma,< 10 nM
same,TGI,SK-MEL-5 melanoma,42.8 nM
same,GI50,SK-OV-3 ovarian,16.7 nM
same,TGI,SK-OV-3 ovarian,1160 nM
same,GI50,SN12C renal,246 nM
same,TGI,SN12C renal,3440 nM
same,GI50,SNB-19 CNS,17.5 nM
same,TGI,SNB-19 CNS,5750 nM
same,GI50,SNB-75 CNS,47.2 nM
same,TGI,SNB-75 CNS,3280 nM
same,GI50,SW-620 colon,< 10 nM
same,TGI,SW-620 colon,28.4 nM
same,GI50,T-47D breast,26.1 nM
same,TGI,T-47D breast,1270 nM
same,GI50,TK-10 renal,1380 nM
same,TGI,TK-10 renal,5990 nM
same,GI50,U251 glioblastoma,< 10 nM
same,TGI,U251 glioblastoma,2360 nM
same,GI50,UO-31 renal,52.1 nM
same,TGI,UO-31 renal,2030 nM
